Twelve molecules from patent publication US4857513A, “Diphosphonic acid compounds, processes for the preparation thereof and pharmaceutical composition comprising the same” (Fujisiwa Pharmaceutical Co., Ltd., priority 1986, dated 1989) can be followed below.

Broadly, the inhibition is the drop in the measured response relative to a control, in per cent.

The assay has as its system Neonatal calvaria (hPTH (1-34)-treated). The assay is described as follows: Inhibition of hPTH (1-34)-stimulated bone resorption in cultured neonatal rat calvaria (calcium accumulation in medium at 6 days). The class given is cell-based, rat (Wistar). Particulars: 144 h, hPTH (1-34) 1×10^-8 M, 37° C.; for inhibition at 1 µM: Dose 1 × 10^-6 M; for inhibition at 0.1 µM: Dose 1 × 10^-7 M. How it is done: Neonatal calvaria were dissected aseptically from 1-2 day old rat (Wistar), washed in Dulbecco's modified eagle's medium and divided along the sagittal suture. The calvaria halves were pooled and randomized in the different groups. The calvaria halves were cultured separately as free-floating bones in multi-well dishes containing a 2 ml of Dulbecco's modified eagle's medium, with 10% heat-inactivated (56° C. for 1 hr) fetal calf serum. Treatment of hPTH (1-34) (1×10^-8 M) and the Test Compound (1×10^-7 or 1×10^-6 M) was begun at zero time. All incubations were performed at 37° C., under an atmosphere of 95% air and 5% CO2 for 6 days. Bone resporption was determined by measuring the accumulation of calcium in the medium at 6 days. The concentration of total calcium in culture medium was measured by OCPC method with a spectrophotometer (Hitachi model U-3200, Tokyo, Japan).
As comparative data, similar tests were conducted using culture medium with hPTH (1×10^-8 M) only, and culture medium without both hPTH and Test Compound.
Test results were represented in terms of percentage of inhibition calculated by the following formula: [formula] CD : the concentration of total calcium in culture medium treated with both hPTH and Test Compound
CO : the concentration of total calcium in control culture medium without both hPTH and Test Compound
CP : the concentration of total calcium in culture medium treated with hPTH only

Counter-ions that a name gives are not always drawn.

Regarding `O=C(Nc1ccc(Cl)cc1)C(P(=O)(O)O)P(=O)(O)O` [Test Compound (b), Tris(tert-butylamine) salt of [N-(4-chlorophenyl)carbamoylmethylene]bis(phosphonic acid)], the inhibition at 1 µM amounted to 56.9% and the inhibition at 0.1 µM is 46.6%.

Consider `COc1ccc(NC(=S)C(P(=O)(O)O)P(=O)(O)O)cc1C(F)(F)F` [Test Compound (h), Disodium salt of [N-(4-methoxy-3-trifluoromethylphenyl)thiocarbamoylmethylene]bis(phosphonic acid)], for which the inhibition at 1 µM was 77.7%.

Turning to `O=P(O)(O)C(C(=S)Nc1cccc(C(F)(F)F)c1)P(=O)(O)O` [Test Compound (f), Disodium salt of [N-(3-trifluoromethylphenyl)thiocarbamoylmethylene]bis(phosphonic acid)], the inhibition at 1 µM was determined as 68.9%.

Take `O=P(O)(O)C(NS(=O)(=O)c1ccc(Cl)cc1)P(=O)(O)O` [Test Compound (k), Disodium salt of [(4-chlorophenyl)sulfonylaminomethylene]bis(phosphonicacid)]: the inhibition at 1 µM came out at 71%.

On to `O=P(O)(O)C(C(=S)Nc1ccc(Cl)cc1)P(=O)(O)O` [Test Compound (c), Tris(tert-butylamine)salt of [N-(4-chlorophenyl)thiocarbamoylmethylene]bis(phosphonic acid)], for which the inhibition at 1 µM was determined as 57%.

Turning to `O=C(NC(P(=O)(O)O)P(=O)(O)O)c1cc2ccccc2s1` [Test Compound (i), Bis(tert-butylamine)salt of [(2-benzo[b]thiophenecarboxamido)methylene]bis(phosphonic acid)], the inhibition at 0.1 µM is 45%.

In the case of `O=P(O)(O)C(C(=S)Nc1ccccc1)P(=O)(O)O` [Test Compound (a), Tris(tert-butylamine) salt of [N-(phenyl)thiocarbamoylmethylene]bis(phosphonic acid)], the inhibition at 1 µM is 66.3% and the inhibition at 0.1 µM was determined as 54.3%.

On to `O=C(NC(P(=O)(O)O)P(=O)(O)O)c1ccc2ccccc2n1` [Test Compound (j), Tris(tert-butylamine)salt of [(2-quinolinecarboxamido)methylene]bis(phosphonic acid)], for which the inhibition at 1 µM is 53.8% and the inhibition at 0.1 µM amounted to 46.9%.

With `CS(=O)(=O)Nc1cccc(NC(=S)C(P(=O)(O)O)P(=O)(O)O)c1` [Test Compound (l), Disodium salt of [N-(3-mesylaminophenyl)thiocarbamoylmethylene]bis(phosphonic acid)], the inhibition at 1 µM worked out at 52.4%.

On to `O=P(O)(O)C(C(=S)Nc1cc2ccccc2s1)P(=O)(O)O` [Test Compound (d), Disodium salt of [N-(2-benzo[b]thienyl)thiocarbamoylmethylene]bis(phosphonic acid)], for which the inhibition at 1 µM is 59.7%.

For `O=P(O)(O)C(C(=S)Nc1ccc(Cl)c(C(F)(F)F)c1)P(=O)(O)O` [Test Compound (g), Disodium salt of [N-(4-chloro-3-trifluoromethylphenyl)thiocarbamoylmethylene]bis(phosphonicacid)], the inhibition at 1 µM stood at 112%.

On to `O=P(O)(O)C(C(=S)Nc1ccc(C(F)(F)F)cc1)P(=O)(O)O` [Test Compound (e), Disodium salt of [N-(4-trifluoromethylphenyl)thiocarbamoylmethylene]bis(phosphonic acid)], for which the inhibition at 1 µM amounted to 65.9%.
